From patent publication US10570172B1 (priority 2008, dated 2020)

Biological target: PrP (Mesocricetus auratus, UniProt P04273)
Assay type: binding, hamster

PrP, sequence (P04273 23-231 limits assumed): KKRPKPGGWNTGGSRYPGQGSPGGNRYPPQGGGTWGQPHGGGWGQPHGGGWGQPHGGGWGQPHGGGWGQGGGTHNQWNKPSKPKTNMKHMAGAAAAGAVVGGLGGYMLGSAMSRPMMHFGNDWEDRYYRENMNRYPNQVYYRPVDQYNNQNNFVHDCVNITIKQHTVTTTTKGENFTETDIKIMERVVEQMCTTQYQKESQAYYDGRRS

SMILES: Nc1c(/N=N/c2ccc(-c3ccc(/N=N/c4cc(S(=O)(=O)O)c5ccccc5c4N)cc3)cc2)cc(S(=O)(=O)O)c2ccccc12 [Congo red]
- inhibition of binding of PrP to RADA (Congo red pre-incubated with PrP before RADA exposure): dose-dependent inhibition
- Congo red concentration with significant inhibition of PrP binding (Congo red pre-incubation with PrP, Mann-Whitney): 1 µM
- inhibition of binding of PrP (RADA pre-incubated with Congo red before or after plate binding): ineffective
